Tests used:
Format in all cases: biochemical
platelet-poor plasma [1] = assay: APTT assay (activated partial thrombin time), anticoagulant activity test; conditions: 37° C., fibrin formation time
Protocol: (§1) Oligosaccharide compounds of the present application, J1 (a compound of formula J, in which Y=Na, q=1, R is azido, and ? is in β configuration), J2 (a compound of formula J, in which Y=Na, q=2, R is azido, and ? is in β configuration), J3 (a compound of formula J, in which Y=Na, q=3, R is azido, and ? is in β configuration), and J4 (a compound of formula J, in which Y=Na, q=4, R is azido, and ? is in β configuration) were assayed for anticoagulant activity, including activated partial thrombin time (APTT), prothrombin time (PT) and thrombin time (TT).
(§2) The whole experiment was carried out according to the instruction of the APTT kit. Firstly, 20 ul of platelet-poor plasma and 5 ul of the solution to be tested (control or sample solution) were mixed into a test cup and incubated in preheating zone at 37° C. for 3 min. Then 25 ul of APTT reagent was added to the mixed system, and then continued to incubate at 37° C. for 3 min. Next, the test cup was moved to the test zone, and 25 ul of calcium chloride solution preheated for 5 min was added. At the same time, recording of fibrin formation time was immediately initiated, and when the experiment was completed, the fibrin formation time was read from the coagulation analyzer.
(§3) Results of the assays are as follows (data in the table represent the concentration required to double APTT/PT/TT): […]

platelet-poor plasma [2] = assay: PT assay (prothrombin time), anticoagulant activity test; conditions: 37° C., fibrin formation time
Protocol: as §1
as §2, with “PT” for “APTT”, “Then” for “Then 25 ul of APTT reagent was added to the mixed system, and then continued to incubate at 37° C. for 3 min. Next,”, “50” for “25”, “of” for “of calcium chloride solution”, “PT reagent” for “for 5 min”, “added (preheating time is longer than 10 min, but not more than 30 min).” for “added.”
as §3

platelet-poor plasma [3] = assay: TT assay (thrombin time), anticoagulant activity test; conditions: 37° C., fibrin formation time, last column of table
Protocol: as §1
as §2, with “TT” for “APTT”, “Then” for “Then 25 ul of APTT reagent was added to the mixed system, and then continued to incubate at 37° C. for 3 min. Next,”, “50” for “25”, “of” for “of calcium chloride solution”, “TT reagent” for “for 5 min”, “added (preheating time is longer than 10 min, but not more than 30 min).” for “added.”
as §3

azido{(2,4-di-O-sulfo-α-L-fucosyl)-(1→3)-(β-D-glucopyranosyluronic acid)-(1→3)-(4,6-di-O-sulfo-2-deoxy-2-N-acetamino-β-D-galactopyranosyl)-(1→4)-[(2,4-di-O-sulfo-α-L-fucosyl)-(1→3)-(β-D-glucopyranosyluronic acid)-(1→3)-(4,6-di-O-sulfo-2-deoxy-2-N-acetamido-β-D-galactopyranosyl)]} decasodium salt [Compound J1]
APTT (concentration required to double APTT) (platelet-poor plasma [1]): 120.39 µg/mL
PT (concentration required to double PT) (platelet-poor plasma [2]): >128 µg/mL
Concentration required to double TT (platelet-poor plasma [3]): >128 µg/mL

Source: patent US12421270B2, “Oligosaccharide, preparation method therefor, composition thereof and use thereof” (YANTAI DONGCHENG BIOCHEMICALS CO., LTD, priority 2018, dated 2025)
